Laboratory results: patent US6162828A, “Cysteine protease inhibitor” (Takeda Chemical Industries, Ltd., priority 1995, dated 2000)
Where a SMILES comes first, the peptide text is derived from it. [ ]: non-standard residue; d: D form. The star is where a group is joined. Fmoc = O=C(OCC1c2ccccc2-c2ccccc21)*; Aib = CC(C)(N)C(=O)O

Molecular target: T1, ICE (IL-1β converting enzyme), recombinant (Homo sapiens, UniProt P29466)
T1 construct: positions corresponding to molecular weights of 25,000 and 15,800; made in house; host or cells: Sf9 insect cells (baculovirus, pVL-ICE)
T1 sequence (P29466 120-297 limits assumed): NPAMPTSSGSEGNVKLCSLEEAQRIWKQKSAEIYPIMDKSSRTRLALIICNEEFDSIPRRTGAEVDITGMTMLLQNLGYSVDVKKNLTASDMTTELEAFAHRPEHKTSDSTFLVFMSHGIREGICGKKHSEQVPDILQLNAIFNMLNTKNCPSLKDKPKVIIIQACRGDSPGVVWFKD
T1 sequence (P29466 317-404 limits assumed): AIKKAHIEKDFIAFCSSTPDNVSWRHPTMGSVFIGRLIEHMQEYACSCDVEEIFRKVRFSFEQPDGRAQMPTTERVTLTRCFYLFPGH
Test: Determination of ICE-inhibiting activity (fluorogenic substrate Ac-Y-V-A-D-MCA)
Format: biochemical
Details: recombinant ICE enzyme solution, 37° C. for 20 minutes, read-out: ICE-inhibiting activity in terms of IC50 value
Protocol: Two ml of the ICE expression recombinant virus suspension as prepared in Reference Example 5 was added to the insect cell Sf9 cultured in 2 1 of Sf900 medium containing 5% fetal calf serum (FCS) (1.5×10^6 cells/ml) to cause infection. Post-infection cultivation was conducted at 27° C. in a spinner flask for 4 days. Cultured cells were recovered (hereinafter all operations conducted on ice), washed 3 times with PBS (-), and suspended in a hypotonic buffer (20 mM KCl, 25 mM HEPES, pH 7.4, 5 MM MgCl2, 1 MM EDTA, 1 MM PMSF, 10 μg/ml pepstatin and leupeptine) to 10^8 cells/ml. After the suspension was kept standing on ice for 20 minutes, cells were disrupted (25 times) using a Dounce homogenizer. Disrupted cells were removed via centrifugation; ammonium sulfate was added to the supernatant to 40% saturation; the precipitate fraction was removed via centrifugation. Ammonium sulfate was further added to 80% saturation; the precipitate was recovered. The precipitate was dissolved in buffer A (20 mM KCl, 25 mM HEPES, pH 7.4, 5 mM EDTA, 2 mM DTT, 1 mM PMSF, 0.1% NP-40, 10% glycerol) and dialyzed against buffer A overnight. […]
After completion of the reaction, the fluorescence intensity of free aminomethylcoumarin was determined at a wavelength of 450 nm via excitation at a wavelength of 365 nm, using a fluorometer FCA (produced by Baxter). […]

In the case of `CC(C)[C@H](NC(=O)OCC1c2ccccc2-c2ccccc21)C(=O)NC(C)(C)C(=O)N[C@H](C=O)CC(=O)O` [Example 60, Fmoc-Val-Aib-NH--CH(CHO)CH2 COOH] (Fmoc-Val-[Aib]-Asp-aldehyde), the IC50 is reported as 19 nM.
